For this assay the following is noted: about 1200 mg/day calcium, about −500 kcal diet, about 12 weeks; control group about 20%.

Procedure: For example, about eighty (80) obese, but otherwise healthy, men and women (average baseline BMI about 34 kg/m2) with an average CRP of about 6.0 mg/L at baseline could be randomized to about 2 groups for about a 12 week intervention. Both groups would consume reduced calorie diets (about −500 kcal) to promote weight loss, with the calcium intake in “the control group” adjusted to about 500 mg/day and in “the intervention group” adjusted to about 1200 mg/day using a calcium source. […] DEXA and hs-CRP measurement can be performed at baseline and about 12 weeks.

For the compound `O=C([O-])[O-].[Ca+2]` [calcium carbonate], the “fat loss from trunkal region” value was “about 50%”.

The values above are taken from patent publication US20080241279A1, “Materials and methods of using calcium for reduction of inflammation” (General Mills, Inc., priority 2004, published 2008).
